Calls of active or inactive are those of the source. The calls are words filed in the database; no cut-off is given here.
Columns and labels:
Assay type in all cases: functional
KM12 [1] = experiment: Growth inhibition of human KM12 cells assessed as cell growth at 10^-8 M by sulforhodamine B assay; settings: read-out: Activity
KM12 [2] = experiment: Growth inhibition of human KM12 cells assessed as cell growth at 10^-7 M by sulforhodamine B assay; settings: read-out: Activity
PC-3 [3] = experiment: Growth inhibition of human PC3 cells assessed as cell growth at 10^-6 M by sulforhodamine B assay; settings: read-out: Activity
HOP-92 [4] = experiment: Growth inhibition of human HOP92 cells assessed as growth inhibition at 10 uM by sulforhodamine B assay
PC-3 [5] = experiment: Growth inhibition of human PC3 cells assessed as growth inhibition at 10 uM by sulforhodamine B assay; settings: read-out: GI
RXF 393 = experiment: Growth inhibition of human RXF393 cells assessed as cell growth at 10 uM by sulforhodamine B assay; settings: read-out: Activity
Malme-3M = experiment: Growth inhibition of human MALME-3M cells assessed as cell growth at 10^-8 M by sulforhodamine B assay; settings: read-out: Activity
NCI-H522 = experiment: Growth inhibition of human NCI-H522 cells assessed as cell growth at 10 uM by sulforhodamine B assay; settings: read-out: Activity
MCF7 = experiment: Growth inhibition of human MCF7 cells assessed as cell growth at 10^-8 M by sulforhodamine B assay; settings: read-out: Activity
[6] = Growth inhibition of human Hs 578T cells assessed as cell growth at 10^-7 M by sulforhodamine B assay; settings: read-out: Activity
786-0 = experiment: Growth inhibition of human 786-0 cells assessed as cell growth at 10 uM by sulforhodamine B assay; settings: read-out: Activity
T47D [7] = experiment: Growth inhibition of human T47D cells assessed as cell growth at 10^-4 M by sulforhodamine B assay; settings: read-out: Activity
HCT-15 [8] = experiment: Growth inhibition of human HCT15 cells assessed as cell growth at 10 uM by sulforhodamine B assay; settings: read-out: Activity
HOP-62 = experiment: Growth inhibition of human HOP62 cells assessed as growth inhibition at 10 uM by sulforhodamine B assay; settings: read-out: GI
HT-29 = experiment: Growth inhibition of human HT-29 cells assessed as growth inhibition at 10 uM by sulforhodamine B assay; settings: read-out: GI
IGROV-1 [9] = experiment: Growth inhibition of human IGROV1 cells assessed as cell growth at 10 uM by sulforhodamine B assay; settings: read-out: Activity
SK-MEL-28 = experiment: Growth inhibition of human SK-MEL-28 cells assessed as growth inhibition at 10 uM by sulforhodamine B assay; settings: read-out: GI
SNB-75 = experiment: Growth inhibition of human SNB75 cells assessed as cell growth at 10^-6 M by sulforhodamine B assay; settings: read-out: Activity
UACC-257 [10] = experiment: Growth inhibition of human UACC257 cells by sulforhodamine B assay
[11] = Growth inhibition of human HCC2998 cells assessed as cell growth at 10^-4 M by sulforhodamine B assay; settings: HCC 2998, read-out: Activity
UACC-257 [12] = experiment: Growth inhibition of human UACC257 cells assessed as cell growth at 10^-7 M by sulforhodamine B assay; settings: read-out: Activity
IGROV-1 [13] = experiment: Growth inhibition of human IGROV1 cells assessed as cell growth at 10^-7 M by sulforhodamine B assay; settings: read-out: Activity
HCT-15 [14] = experiment: Growth inhibition of human HCT15 cells assessed as cell growth at 10^-8 M by sulforhodamine B assay; settings: read-out: Activity
HOP-92 [15] = experiment: Growth inhibition of human HOP92 cells by sulforhodamine B assay
MOLT-4 [16] = experiment: Growth inhibition of human MOLT4 cells assessed as cell growth at 10 uM by sulforhodamine B assay; settings: read-out: Activity
NCI-H23 = experiment: Growth inhibition of human NCI-H23 cells assessed as cell growth at 10^-4 M by sulforhodamine B assay; settings: read-out: Activity
OVCAR-5 = experiment: Growth inhibition of human OVCAR5 cells assessed as growth inhibition at 10 uM by sulforhodamine B assay; settings: read-out: GI
SN12C = experiment: Growth inhibition of human SN12C cells assessed as cell growth at 10^-7 M by sulforhodamine B assay; settings: read-out: Activity
SNB-19 = experiment: Growth inhibition of human SNB19 cells assessed as cell growth at 10^-4 M by sulforhodamine B assay; settings: read-out: Activity
LOX IMVI = experiment: Growth inhibition of human LOXIMVI cells assessed as growth inhibition at 10 uM by sulforhodamine B assay; settings: read-out: GI
K562 = experiment: Growth inhibition of human K562 cells assessed as cell growth at 10^-8 M by sulforhodamine B assay; settings: read-out: Activity
COLO 205 = experiment: Growth inhibition of human COLO205 cells assessed as cell growth at 10^-4 M by sulforhodamine B assay; settings: read-out: Activity
UACC-62 = experiment: Growth inhibition of human UACC62 cells assessed as cell growth at 10 uM by sulforhodamine B assay; settings: read-out: Activity
OVCAR-3 = experiment: Growth inhibition of human OVCAR3 cells by sulforhodamine B assay
MOLT-4 [17] = experiment: Growth inhibition of human MOLT4 cells assessed as growth inhibition at 10 uM by sulforhodamine B assay; settings: read-out: GI
CCRF-CEM = experiment: Growth inhibition of human CCRF-CEM cells assessed as cell growth at 10^-6 M by sulforhodamine B assay; settings: read-out: Activity
T47D [18] = experiment: Growth inhibition of human T47D cells assessed as growth inhibition at 10 uM by sulforhodamine B assay; settings: read-out: GI
T47D [19] = experiment: Growth inhibition of human T47D cells assessed as cell growth at 10 uM by sulforhodamine B assay; settings: read-out: Activity
TK-10 = experiment: Growth inhibition of human TK10 cells assessed as cell growth at 10 uM by sulforhodamine B assay; settings: read-out: Activity
SR [20] = experiment: Growth inhibition of human SR cells assessed as cell growth at 10 uM by sulforhodamine B assay; settings: read-out: Activity
NCI-H322M = experiment: Growth inhibition of human NCI-H322M cells assessed as cell growth at 10^-4 M by sulforhodamine B assay; settings: read-out: Activity
OVCAR-8 = experiment: Growth inhibition of human OVCAR8 cells assessed as cell growth at 10 uM by sulforhodamine B assay; settings: read-out: Activity
MDA-MB-231 = experiment: Growth inhibition of human MDA-MB-231 cells assessed as growth inhibition at 10 uM by sulforhodamine B assay; settings: read-out: GI
SW-620 = experiment: Growth inhibition of human SW620 cells assessed as growth inhibition at 10 uM by sulforhodamine B assay; settings: read-out: GI
SR [21] = experiment: Growth inhibition of human SR cells assessed as growth inhibition at 10 uM by sulforhodamine B assay; settings: read-out: GI
HCT-15 [22] = experiment: Growth inhibition of human HCT15 cells assessed as cell growth at 10^-7 M by sulforhodamine B assay; settings: read-out: Activity
[23] = read-out: LC50 (the source's name)
[24] = read-out: pLC50 (the source's name) (converted)

Work on `C/C=C(/C)C(=O)O[C@@H]1CC(C)(C)C[C@H]2C3=CC[C@@H]4[C@@]5(C)CC[C@H](O)C(C)(C)[C@@H]5CC[C@@]4(C)[C@]3(C)CC[C@@]12C(=O)O` [Reduced Lantadene A] yielded a growth at 0.01 µM (KM12 [1]) of 104%, a growth at 0.1 µM (KM12 [2]) of 103% and a growth at 1 µM (PC-3 [3]) of 70%. For the same compound, the “growth inhibition (GI)” value (HOP-92 [4]) was “Active”, the inhibition of growth at 10 µM (PC-3 [5]) was 66.7% and the growth at 10 µM (RXF 393) was 22.8%. It also gave a growth at 0.01 µM (Malme-3M) of 94%, a growth at 10 µM (NCI-H522) of 49.7% and a growth at 0.01 µM (MCF7) of 95%. The growth at 0.1 µM [6] was 91%, the growth at 10 µM (786-0) was -42.9% and the growth at 100 µM (T47D [7]) was -36%. It also gave a growth at 10 µM (HCT-15 [8]) of 21.2%, an inhibition of growth at 10 µM (HOP-62) of 75.7% and an inhibition of growth at 10 µM (HT-29) of 44.2%. For the same compound, the growth at 10 µM (IGROV-1 [9]) was 35.1%, the inhibition of growth at 10 µM (SK-MEL-28) was 66.3% and the growth at 1 µM (SNB-75) was 76%. It also gave a GI50 (UACC-257 [10]; read-out: GI50) of 2.13 µM, a CC50 (UACC-257 [10]; [23]) of 19.3 µM and a TGI (UACC-257 [10]; read-out: TGI) of 4.93 µM. The GI50 (UACC-257 [10]; read-out: pGI50 (converted)) was 2.14 µM, the CC50 (UACC-257 [10]; [24]) was 19.5 µM and the TGI (UACC-257 [10]; read-out: pTGI (converted)) was 4.9 µM. For the same compound, the growth at 100 µM [11] was -58%, the growth at 0.1 µM (UACC-257 [12]) was 88% and the growth at 0.1 µM (IGROV-1 [13]) was 111%. It also gave a growth at 0.01 µM (HCT-15 [14]) of 100%, a GI50 (HOP-92 [15]; read-out: GI50) of 1.41 µM and a CC50 (HOP-92 [15]; [23]) of 6.21 µM. It also gave a TGI (HOP-92 [15]; read-out: TGI) of 2.96 µM, a GI50 (HOP-92 [15]; read-out: pGI50 (converted)) of 1.41 µM and a CC50 (HOP-92 [15]; [24]) of 6.17 µM. The TGI (HOP-92 [15]; read-out: pTGI (converted)) was 2.95 µM, the growth at 10 µM (MOLT-4 [16]) was 41.4% and the growth at 100 µM (NCI-H23) was -51%. It also gave an inhibition of growth at 10 µM (OVCAR-5) of 36%, a growth at 0.1 µM (SN12C) of 92% and a growth at 100 µM (SNB-19) of -40%. The inhibition of growth at 10 µM (LOX IMVI) was 57.3%, the growth at 0.01 µM (K562) was 107% and the growth at 100 µM (COLO 205) was 3%. For the same compound, the growth at 10 µM (UACC-62) was -28.1%, the GI50 (OVCAR-3; read-out: GI50) was 1.95 µM and the TGI (OVCAR-3; read-out: TGI) was 3.61 µM. For the same compound, the GI50 (OVCAR-3; read-out: pGI50 (converted)) was 1.95 µM, the TGI (OVCAR-3; read-out: pTGI (converted)) was 3.63 µM and the inhibition of growth at 10 µM (MOLT-4 [17]) was 58.6%. The growth at 1 µM (CCRF-CEM) was 90%, the inhibition of growth at 10 µM (T47D [18]) was 24.3% and the growth at 10 µM (T47D [19]) was 75.7%. For the same compound, the growth at 10 µM (TK-10) was 66.8%, the growth at 10 µM (SR [20]) was 61.9% and the growth at 100 µM (NCI-H322M) was -71%. For the same compound, the growth at 10 µM (OVCAR-8) was 57.7%, the inhibition of growth at 10 µM (MDA-MB-231) was 77.8% and the inhibition of growth at 10 µM (SW-620) was 60.9%. For the same compound, the inhibition of growth at 10 µM (SR [21]) was 38.1% and the growth at 0.1 µM (HCT-15 [22]) was 101%.

— ChEMBL document CHEMBL2413072, “Synthesis and in vitro anticancer studies of novel C-2 arylidene congeners of lantadenes” (2013)
